Test results from patent publication US11590147B2, “17-hydroxyprogesterone ester-containing oral compositions and related methods” (Lipocine Inc., priority 2015, dated 2023).
Like-named read-outs stand apart in the source and are kept apart here.

Tests used:
[1] = Phase 1b open-label pharmacokinetic study in healthy pregnant women (single dose data and simulated steady state); type: in vivo, human (pregnant women); conditions: for Cmax / AUC(0-t): female, human, in vivo, N = 7; for Cmax / AUC(0-t) / AUCSS / Css, max: pregnant women; for AUC(0-t): read-out: AUC0-24; for AUCSS / Css, max: simulated steady state; for AUCSS: 1 week duration
Description: Formulations (e.g., oral dosage forms like those described herein) were used in a Phase 1b open-label study that enrolled eight healthy; pregnant women at 16 to 18 weeks gestation. All subjects received three treatments in sequence. In period one, subjects received two doses of 400 mg with oral dosage forms like those described herein, administered 12 hours apart. In period two, subjects received two doses of 800 mg oral with dosage forms like those described herein, administered 12 hours apart. In period three, subjects were given 250 mg of HPC via intramuscular injection (marketed product Makena®). Blood samples were collected periodically over 24 hours following oral dosing and over 28 days following the IM dose.
Steady state pharmacokinetic parameters for oral and IM dosing regimens were simulated based on single dose data and the Cmax and […] values are shown in the table below.

[2] = cited from earlier work
[3] = Saxton et al. 2004; Greene NEJM; cited from earlier work
[4] = oral 400 mg BID (two doses 12 hours apart)
[5] = oral 800 mg BID (two doses 12 hours apart)

- Cmax [1, 4]: 21.3 ng/mL
- AUC(0-t) [1, 4]: 156 ng·h/mL
- Cmax [1, 5]: 63.2 ng/mL
- AUC(0-t) [1, 5]: 577 ng·h/mL
- absorption following oral administration ([1]; healthy pregnant women): significant HPC absorption
- AUCSS ([1]; oral 400 mg BID): 1074 ng·h/mL
- AUCSS ([1]; oral 800 mg BID): 4058 ng·h/mL
- Css, max ([1]; oral 400 mg BID): 21.6 ng/mL
- Css, max ([1]; oral 800 mg BID): 71.1 ng/mL
Compound: CCCCCC(=O)O[C@]1(C(C)=O)CC[C@H]2[C@@H]3CCC4=CC(=O)CC[C@]4(C)[C@H]3CC[C@@]21C [Example 17HPC, 17-hydroxyprogesterone caproate]
- increase in exposure with dose ([1]; 800 mg dose vs 400 mg dose, oral): more than dose proportional increase in exposure
- solubility in water [2]: < 0.02 µg/mL
- oral activity [3]: no oral activity
